In ChEMBL document CHEMBL3108730, “Exploring the determinants of trace amine-associated receptor 1's functional selectivity for the stereoisomers of amphetamine and methamphetamine” (J Med Chem, 2014):
pEC50: −log10 of the molar value. The source made the active and inactive calls. The rule behind the calls is not given here.

Legend:
[1] = target: Trace amine-associated receptor 1 (Rattus norvegicus) (UniProt Q923Y9); assay: Activation of rat wild type TAAR1 expressed in HEK293 cells assessed as stimulation of cAMP production at 0.0001 to 100 uM after 1 hr by chemiluminescent assay relative to control; type: functional, cell-based
[2] = test system: Trace amine-associated receptor 1 (Mus musculus), Q923Y8 [T268M]; assay: Activation of mouse TAAR1 transmembrane domain 6 Thr268(6.55)Met mutant expressed in HEK293 cells assessed as stimulation of cAMP production at 0.0001 to 100 uM after 1 hr by chemiluminescent assay relative to control; type: functional, cell-based
[3] = target: Trace amine-associated receptor 1 (Rattus norvegicus, UniProt Q923Y9, M268T); assay: Activation of rat TAAR1 transmembrane domain 6 Met268(6.55)Thr mutant expressed in HEK293 cells assessed as stimulation of cAMP production after 1 hr by chemiluminescent assay; type: functional, cell-based
[4] = target: Trace amine-associated receptor 1 (Rattus norvegicus, UniProt Q923Y9); assay: Activation of rat wild type TAAR1 expressed in HEK293 cells assessed as stimulation of cAMP production after 1 hr by chemiluminescent assay; type: functional, cell-based
[5] = target: Trace amine-associated receptor 1 (Mus musculus) (UniProt Q923Y8); assay: Activation of mouse wild type TAAR1 expressed in HEK293 cells assessed as stimulation of cAMP production at 0.0001 to 100 uM after 1 hr by chemiluminescent assay relative to control; type: functional, cell-based
[6] = test system: Trace amine-associated receptor 1 (Mus musculus), Q923Y8 [Y287N]; assay: Activation of mouse TAAR1 transmembrane domain 7 Tyr287(7.39)Asn mutant expressed in HEK293 cells assessed as stimulation of cAMP production at 0.0001 to 100 uM after 1 hr by chemiluminescent assay relative to control; type: functional, cell-based
[7] = target: Trace amine-associated receptor 1 (Mus musculus, UniProt Q923Y8); assay: Activation of mouse wild type TAAR1 expressed in HEK293 cells assessed as stimulation of cAMP production after 1 hr by chemiluminescent assay; type: functional, cell-based
[8] = test system: Trace amine-associated receptor 1 (Rattus norvegicus), Q923Y9 [M268T]; assay: Activation of rat TAAR1 transmembrane domain 6 Met268(6.55)Thr mutant expressed in HEK293 cells assessed as stimulation of cAMP production at 0.0001 to 100 uM after 1 hr by chemiluminescent assay relative to control; type: functional, cell-based
[9] = test system: Trace amine-associated receptor 1 (Mus musculus), Q923Y8 [D102A]; assay: Activation of mouse TAAR1 Asp102(3.32)Ala mutant expressed in HEK293 cells assessed as stimulation of cAMP production at 0.0001 to 100 uM after 1 hr by chemiluminescent assay; type: functional, cell-based
[10] = target: Trace amine-associated receptor 1 (Mus musculus, UniProt Q923Y8, T268M); assay: Activation of mouse TAAR1 transmembrane domain 6 Thr268(6.55)Met mutant expressed in HEK293 cells assessed as stimulation of cAMP production after 1 hr by chemiluminescent assay; type: functional, cell-based
[11] = target: Trace amine-associated receptor 1 (Mus musculus, UniProt Q923Y8, Y287N); assay: Activation of mouse TAAR1 transmembrane domain 7 Tyr287(7.39)Asn mutant expressed in HEK293 cells assessed as stimulation of cAMP production after 1 hr by chemiluminescent assay; type: functional, cell-based
[12] = target: Trace amine-associated receptor 1 (Rattus norvegicus, UniProt Q923Y9, N287Y); assay: Activation of rat TAAR1 transmembrane domain 7 Asn287(7.39)Tyr mutant expressed in HEK293 cells assessed as stimulation of cAMP production after 1 hr by chemiluminescent assay; type: functional, cell-based
[13] = test system: Trace amine-associated receptor 1 (Rattus norvegicus), Q923Y9 [N287Y]; assay: Activation of rat TAAR1 transmembrane domain 7 Asn287(7.39)Tyr mutant expressed in HEK293 cells assessed as stimulation of cAMP production at 0.0001 to 100 uM after 1 hr by chemiluminescent assay relative to control; type: functional, cell-based
[14] = target: Trace amine-associated receptor 1 (Mus musculus) (UniProt Q923Y8); assay: Activation of mouse wild type TAAR1 expressed in HEK293 cells assessed as stimulation of cAMP production at 0.0001 to 100 uM after 1 hr by chemiluminescent assay relative to beta-phenylethylamine; type: functional, cell-based
[15] = test system: Trace amine-associated receptor 1 (Rattus norvegicus), Q923Y9 [N287Y]; assay: Activation of rat TAAR1 transmembrane domain 7 Asn287(7.39)Tyr mutant expressed in HEK293 cells assessed as stimulation of cAMP production at 0.0001 to 100 uM after 1 hr by chemiluminescent assay relative to beta-phenylethylamine; type: functional, cell-based
[16] = target: Trace amine-associated receptor 1 (Rattus norvegicus) (UniProt Q923Y9); assay: Activation of rat wild type TAAR1 expressed in HEK293 cells assessed as stimulation of cAMP production at 0.0001 to 100 uM after 1 hr by chemiluminescent assay relative to beta-phenylethylamine; type: functional, cell-based
[17] = test system: Trace amine-associated receptor 1 (Mus musculus), Q923Y8 [T268M]; assay: Activation of mouse TAAR1 transmembrane domain 6 Thr268(6.55)Met mutant expressed in HEK293 cells assessed as stimulation of cAMP production at 0.0001 to 100 uM after 1 hr by chemiluminescent assay relative to beta-phenylethylamine; type: functional, cell-based
[18] = test system: Trace amine-associated receptor 1 (Mus musculus), Q923Y8 [Y287N]; assay: Activation of mouse TAAR1 transmembrane domain 7 Tyr287(7.39)Asn mutant expressed in HEK293 cells assessed as stimulation of cAMP production at 0.0001 to 100 uM after 1 hr by chemiluminescent assay relative to beta-phenylethylamine; type: functional, cell-based
[19] = test system: Trace amine-associated receptor 1 (Rattus norvegicus), Q923Y9 [M268T]; assay: Activation of rat TAAR1 transmembrane domain 6 Met268(6.55)Thr mutant expressed in HEK293 cells assessed as stimulation of cAMP production at 0.0001 to 100 uM after 1 hr by chemiluminescent assay relative to beta-phenylethylamine; type: functional, cell-based
Rattus norvegicus = species on record: Rattus norvegicus; assay: Selectivity ratio of EC50 for rat TAAR1 transmembrane domain 6 Met268(6.55)Thr mutant to EC50 for rat wild type TAAR1
Mus musculus = species on record: Mus musculus; assay: Selectivity ratio of EC50 for mouse wild type TAAR1 to EC50 for mouse TAAR1 transmembrane domain 6 Thr268(6.55)Met mutant
[20] = test system: Trace amine-associated receptor 1 (Rattus norvegicus), Q923Y9 [D102A]; assay: Activation of rat TAAR1 Asp102(3.32)Ala mutant expressed in HEK293 cells assessed as stimulation of cAMP production at 0.0001 to 100 uM after 1 hr by chemiluminescent assay relative to control; type: functional, cell-based
Sequence of Trace amine-associated receptor 1 (Rattus norvegicus), Q923Y9 [D102A] (Q923Y9 whole entry D102A): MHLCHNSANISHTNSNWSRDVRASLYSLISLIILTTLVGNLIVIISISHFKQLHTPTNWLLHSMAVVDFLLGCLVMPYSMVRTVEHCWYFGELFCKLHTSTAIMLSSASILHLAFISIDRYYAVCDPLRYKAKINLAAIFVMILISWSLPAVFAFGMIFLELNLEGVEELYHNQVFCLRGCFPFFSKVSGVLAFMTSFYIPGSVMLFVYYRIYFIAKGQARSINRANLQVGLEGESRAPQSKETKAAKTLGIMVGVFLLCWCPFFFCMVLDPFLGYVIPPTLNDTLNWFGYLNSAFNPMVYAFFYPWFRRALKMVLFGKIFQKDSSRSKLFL

Sequence of Trace amine-associated receptor 1 (Mus musculus), Q923Y8 [D102A] (Q923Y8 whole entry D102A, the tested form may be a part): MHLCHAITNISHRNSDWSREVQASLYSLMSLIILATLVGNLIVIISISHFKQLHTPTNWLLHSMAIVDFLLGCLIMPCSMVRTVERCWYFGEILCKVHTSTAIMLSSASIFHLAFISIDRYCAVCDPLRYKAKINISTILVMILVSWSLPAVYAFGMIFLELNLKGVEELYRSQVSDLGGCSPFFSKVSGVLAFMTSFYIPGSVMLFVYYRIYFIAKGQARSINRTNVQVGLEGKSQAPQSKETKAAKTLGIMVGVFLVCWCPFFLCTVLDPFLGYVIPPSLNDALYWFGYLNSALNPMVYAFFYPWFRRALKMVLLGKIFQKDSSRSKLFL
Sequence of Trace amine-associated receptor 1 (Rattus norvegicus, UniProt Q923Y9, N287Y) (Q923Y9 whole entry N287Y, the tested form may be a part): as the sequence (Q923Y9 whole entry D102A) above, with A102D, N287Y counted along it
Sequence of Trace amine-associated receptor 1 (Rattus norvegicus), Q923Y9 [N287Y] (Q923Y9 whole entry N287Y, the tested form may be a part): as the sequence (Q923Y9 whole entry D102A) above, with A102D, N287Y counted along it
Sequence of Trace amine-associated receptor 1 (Mus musculus), Q923Y8 [T268M] (Q923Y8 whole entry T268M, the tested form may be a part): as the sequence (Q923Y8 whole entry D102A, the tested form may be a part) above, with A102D, T268M counted along it
Sequence of Trace amine-associated receptor 1 (Mus musculus, UniProt Q923Y8, T268M) (Q923Y8 whole entry T268M, the tested form may be a part): as the sequence (Q923Y8 whole entry D102A, the tested form may be a part) above, with A102D, T268M counted along it
Sequence of Trace amine-associated receptor 1 (Rattus norvegicus) (Q923Y9 whole entry, the tested form may be a part): as the sequence (Q923Y9 whole entry D102A) above, with A102D counted along it
Sequence of Trace amine-associated receptor 1 (Mus musculus), Q923Y8 [Y287N] (Q923Y8 whole entry Y287N, the tested form may be a part): as the sequence (Q923Y8 whole entry D102A, the tested form may be a part) above, with A102D, Y287N counted along it
Sequence of Trace amine-associated receptor 1 (Mus musculus, UniProt Q923Y8, Y287N) (Q923Y8 whole entry Y287N, the tested form may be a part): as the sequence (Q923Y8 whole entry D102A, the tested form may be a part) above, with A102D, Y287N counted along it
Sequence of Trace amine-associated receptor 1 (Rattus norvegicus, UniProt Q923Y9, M268T) (Q923Y9 whole entry M268T, the tested form may be a part): as the sequence (Q923Y9 whole entry D102A) above, with A102D, M268T counted along it
Sequence of Trace amine-associated receptor 1 (Rattus norvegicus), Q923Y9 [M268T] (Q923Y9 whole entry M268T, the tested form may be a part): as the sequence (Q923Y9 whole entry D102A) above, with A102D, M268T counted along it
Sequence of Trace amine-associated receptor 1 (Mus musculus) (Q923Y8 whole entry, the tested form may be a part): as the sequence (Q923Y8 whole entry D102A, the tested form may be a part) above, with A102D counted along it
Sequence of Trace amine-associated receptor 1 (Mus musculus, UniProt Q923Y8) (Q923Y8 whole entry, the tested form may be a part): as the sequence (Q923Y8 whole entry D102A, the tested form may be a part) above, with A102D counted along it
Sequence of Trace amine-associated receptor 1 (Rattus norvegicus, UniProt Q923Y9) (Q923Y9 whole entry): as the sequence (Q923Y9 whole entry D102A) above, with A102D counted along it

| Compound | pEC50 [3] | pEC50 [4] | pEC50 [7] | Activity [9] | pEC50 [10] | pEC50 [11] | pEC50 [12] | Emax [14] [%] | Emax [15] [%] | Emax [16] [%] | Emax [17] [%] | Emax [18] [%] | Emax [19] [%] | Ratio EC50 (Rattus norvegicus) | Ratio EC50 (Mus musculus) | further results |
| --- | --- | --- | --- | --- | --- | --- | --- | --- | --- | --- | --- | --- | --- | --- | --- | --- |
| NCCc1ccccc1 [PHENETHYLAMINE] | 6.58 | 7.39 | 6.72 | inactive | 7.33 | 7.23 | 6.77 |  |  |  |  |  |  |  |  | Emax [1]: 96.4%; Emax [2]: 97.6%; Emax [5]: 95%; Emax [6]: 95.9%; Emax [8]: 97.8%; Emax [13]: 97.2% |
| C[C@@H](N)Cc1ccccc1 [LEVAMFETAMINE] |  |  |  | inactive | 6.92 | 6.98 |  | 93.6 | 95.8 | 86.7 | 90.5 | 89.4 | 91.6 |  |  |  |
| CN[C@H](C)Cc1ccccc1 | 5.96 |  | 6.07 | inactive | 6.90 | 5.80 | 6.48 | 96.9 | 93.3 | 82.5 | 91.5 | 89.6 | 77.6 | 10 | 10 |  |
| C[C@H](N)Cc1ccccc1 [DEXTROAMPHETAMINE] |  |  | 7.07 | inactive | 8.40 | 6.66 |  | 99.8 | 103 | 102 | 98 | 93 | 93.8 |  |  |  |
| CN[C@@H](C)Cc1ccccc1 [METHAMPHETAMINE] | 5.69 | 6.88 | 6.55 | inactive | 7.75 | 5.74 | 6.70 | 98 | 101 | 94.3 | 94 | 92.2 | 94.3 | 10 | 10 |  |
| NCCc1ccc(O)cc1 |  |  |  | inactive |  |  |  |  |  |  |  |  |  |  |  | Activity [20]: inactive |
